This test concerns methylphenidate. Put plainly: Methylphenidate antagonism in mice (antagonism of biting of corrugated paper). To be noted: for ED50: Mus musculus; for ED50 / Methylphenidate antagonism, duration of peak effect: mice; for Methylphenidate antagonism, comparison in words (peak effect and duration): compared within the table, with known substances. In kind it is in vivo, NMRI male mice. An excerpt: The test may briefly be described as follows:
As animals were used NMRI male mice weighting 18-25 grams.
5 × 2 mice are used for each dose level.
[…] At each time interval separate groups of mice were used. After administration of methylphenidate the mice are placed in the observation cages, 2 in each cage, where they remain for one hour. The cages are placed on corrugated paper, the corrugations facing upwards. It is examined whether or not the mice have been biting the corrugated paper. […] At each time interval separate groups of mice were used. The peak effect was determined for the test substances and also for a number of known neuroleptics.
The test was carried out on a number of the novel compounds of Formula I and on a number of closely related thiaxanthene derivatives.

The mark [1] stands for this setting: ip, i.p. test substance, 24 h after administration, read-out: Methylphenidate antagonism, ED50 24 h i.p.
Setting [2] is: route p.c. [sic], at peak effect, read-out: Methylphenidate antagonism, Peak effect ED50 p.c.

Results on ten compounds are retold here after US4035503A, “Xanthene and thioxanthene derivatives, compositions thereof and a method of preparation thereof” (Kefalas A/S, priority 1973, dated 1977).

SMILES strings stand for the structures. Where two headings read alike, the source gives them in different places. A value given as a limit tells only on which side of the number the result lay.

Broadly, the ED50 is the midpoint of the dose-response relation.

Consider `CN(C)CC/C=C1/c2ccccc2Sc2ccc(Cl)cc21` [α-chlorprothixen, trans-9-(3-dimethylaminopropylidene)-2-chloro-thioxanthene, reference compound], for which the ED50 runs as follows: under setting [1], more than 20 mg/kg; under setting [2], 2.6 mg/kg. Besides, under “i.p. test substance”, the “Methylphenidate antagonism, duration of peak effect” value came to 2 h.
Regarding `CN(C)CC=CC1c2ccc(F)cc2Sc2ccc(C(F)(F)F)cc21` (stereo not drawn) [Lu 11-186, 2-Trifluoromethyl-6-fluoro-9-(3-dimethylamino-1-propenyl)-thioxanthene], the ED50 under setting [2] stood at 0.08 mg/kg. Under “i.p. test substance”, the “Methylphenidate antagonism, duration of peak effect” value amounted to 8 h.
For `OCCC1CCN(CC=CC2c3ccc(F)cc3Sc3ccc(C(F)(F)F)cc32)CC1` (stereo not drawn) [Lu 12-001], the ED50 under setting [1] was 0.1 mg/kg and the ED50 under setting [2] was found to be 0.2 mg/kg. Where the note is “i.p. test substance”, the “Methylphenidate antagonism, duration of peak effect” value was determined as 72 h.
As to `OCCN1CCN(CC/C=C2/c3ccccc3Sc3ccc(C(F)(F)F)cc32)CC1` [α-flupenthixol, 9-[3-(4-(2-hydroxyethyl)piperazinyl-(1))-propylidene]-2-trifluoromethyl-thioxanthene, reference compound], the ED50 by setting is: under setting [1], more than 20 mg/kg; under setting [2], 0.22 mg/kg. For the setting “i.p. test substance”, the “Methylphenidate antagonism, duration of peak effect” value is reported as 6 h.
Consider `OCCC1CCN(CC=CC2c3ccc(F)cc3Oc3ccc(C(F)(F)F)cc32)CC1` (stereo not drawn) [Lu 11-200, 2-Trifluoromethyl-6-fluoro-9-(3-(4-(2-hydroxyethyl)piperidin-1-yl)-1-propenyl) xanthene], for which the ED50 by setting is: under setting [1], 1.6 mg/kg; under setting [2], 0.2 mg/kg. For the same compound, the “Methylphenidate antagonism, duration of peak effect” value (i.p. test substance) came out at 17 h.
With `OCCN1CCN(CC=CC2c3ccccc3Sc3ccc(Cl)cc32)CC1` (stereo not drawn) [Lu 9-244, 2-Chloro-9-(3-(4-(2-hydroxyethyl)piperazin-1-yl)-1-propenyl) thioxanthene], the “Methylphenidate antagonism, comparison in words (peak effect and duration)” value (shortened to “Methylphenidate antagonism, comparison”) is “a more prolonged activity while the peak effect remains at the same level or is somewhat higher”. Also, the ED50 under setting [1] came out at 14.1 mg/kg. Besides, the ED50 under setting [2] was determined as 0.22 mg/kg. For the same compound, under “i.p. test substance”, the “Methylphenidate antagonism, duration of peak effect” value is listed as 10 h.
`CN(C)CC=CC1c2ccccc2Sc2ccc(Cl)cc21` (stereo not drawn) [Lu 8-030, 2-Chloro-9-(3-dimethylamino-1-propenyl)-thioxanthene]: the “Methylphenidate antagonism, comparison” value is “a more prolonged activity while the peak effect remains at the same level or is somewhat higher”. Also, the ED50 under setting [1] was more than 20 mg/kg. For the same compound, the ED50 under setting [2] turned out to be 5.5 mg/kg. Besides, under “i.p. test substance”, the “Methylphenidate antagonism, duration of peak effect” value came out at 3 h.
With `OCCN1CCN(CC=CC2c3ccccc3Sc3ccc(C(F)(F)F)cc32)CC1` (stereo not drawn) [Lu 9-212, 2-Trifluoromethyl-9-(3-(4-(2-hydroxyethyl)-piperazin-1-yl)-1propenyl) thioxanthene], the “Methylphenidate antagonism, comparison” value is recorded as “a more prolonged activity while the peak effect remains at the same level or is somewhat higher”. The median effective dose (ED50) under setting [1] is more than 10 mg/kg. In addition, under setting [2], the ED50 was found to be 0.13 mg/kg. For the setting “i.p. test substance”, the “Methylphenidate antagonism, duration of peak effect” value stood at 10 h.
Take `OCCN1CCN(CC=CC2c3ccc(F)cc3Sc3ccc(C(F)(F)F)cc32)CC1` (stereo not drawn) [Lu 10-153, 2-Trifluoromethyl-6-fluoro-9-(3-(4-(2-hydroxyethyl)piperazine1-yl)-1-propenyl)thioxanthene]: the “Methylphenidate antagonism, comparison” value is recorded as “unique in combining at the same time the most potent peak effect but also the long lasting effect”. The ED50 under setting [1] was found to be 0.06 mg/kg. For the same compound, under setting [2], the ED50 came out at 0.03 mg/kg. In addition, where the note is “i.p. test substance”, the “Methylphenidate antagonism, duration of peak effect” value is reported as 30 h.
Take `OCCN1CCN(CC/C=C2/c3ccccc3Sc3ccc(Cl)cc32)CC1` [α-clopenthixol, 9-[3-(4-(2-hydroxyethyl)piperazinyl-(1))-propylidene]-2-chloro-thioxanthene, reference compound]: the ED50 was more than 20 mg/kg under setting [1] and 1.3 mg/kg under setting [2]. For the same compound, the “Methylphenidate antagonism, duration of peak effect” value (i.p. test substance) turned out to be 6 h.
